Values of other authors, collected in patent publication US20060252804A1, “Flupirtin injectable galenic form” (AWD.pharma GMBH &Co. KG, priority 2003, published 2006).

Details: in aqueous solutions and in most physiologically tolerated organic solvents

In the case of `CCOC(=O)Nc1ccc(NCc2ccc(F)cc2)nc1N` [flupirtine, 2-amino-3-carbethoxyamino-6-(4-fluorobenzylamino)pyridine], the solubility is given as “scarcely soluble”.
